The test is filed under the species Mus musculus. Briefly: Compound was tested for its ability to inhibit mAb (monoclonal antibody) binding to immobilized ova-10d; inhibited the binding of seven of nine mAbs to immobilized ova-10d, A - The IC50 of these seven mAb ranged from 15 to 350 uM. It is filed as functional, organism-based.

With `COC(=O)C1C(OP(=O)(O)c2ccccc2)CC2CCC1N2C` (stereo unspecified), the IC50 result is “A”.
